Experimental data from patent US20060275170A1, “Method for terminal sterilization of transdermal delivery devices” (priority 2005, published 2006).
Entries after “also recorded” stand apart in the source; their conditions may differ.

How the values were obtained:
Assay type in all cases: physicochemical
[1] = Example 3: purity and oxidation of coated hPTH(1-34) after gamma irradiation; packaging, purge gas and temperature varied (RP-HPLC, SEC-HPLC)
Method: Formulations of hPTH(1-34) were prepared as set forth in Example 1, and coated on microprojection arrays. Certain arrays were assembled with a polycarbonate retainer ring and an adhesive. The arrays were sealed in foil pouches purged with nitrogen or ambient air or in glass vials. The arrays were exposed to 14 or 21 kGy of gamma radiation under dry ice or an ambient temperature. As discussed above, the purity and degradation of the PTH formulations was assessed using RP-HPLC and SEC-HPLC.

[2] = Example 4: purity of coated hPTH(1-34) after 15 kGy gamma or e-beam; desiccant, temperature and sucrose content varied (RP-HPLC, SEC-HPLC)
Method: In this example, formulations of hPTH(1-34) were prepared, comprising 20% w/w HPTH, 20% sucrose or 40% sucrose, 0.2% polysorbate 20 and 0.03% EDTA. The arrays were assembled with a polycarbonate retainer ring and an adhesive. The arrays were sealed in foil pouches purged with nitrogen. Certain samples included a 4 Å molecular seive desiccant. The arrays were exposed to 15 kGy of gamma or e-beam radiation at under dry ice, 2-8° C. or an ambient temperature. As discussed above, the purity and degradation of the PTH formulations was assessed using RP-HPLC and SEC-HPLC.

[3] = Example 2: purity and oxidation of coated hPTH after gamma irradiation or ethylene oxide sterilization; packaging and antioxidants varied (RP-HPLC, SEC-HPLC); conditions: for degradation: glass vial
Method: Formulations of hPTH(1-34) were prepared as set forth in Example 1, and coated on microprojection arrays. In addition to the standard 1:1 sucrose:hPTH formulations discussed above, the effect of antioxidants was assessed by adding to selected samples 5% w/w methionine or 3.3% w/w ascorbic acid. The coated arrays were placed in nitrogen purged heat-sealed foil pouches or glass vials. Also, one of the samples was subjected to ethylene oxide sterilization as a comparison. The remaining samples were subjected to dose of gamma radiation of either 7, 14 or 21 kGy under dry ice or an ambient temperature. As discussed above, the purity and degradation of the PTH formulations was assessed using RP-HPLC and SEC-HPLC.

[4] = Example 1: purity and degradation products of hPTH(1-34) coated microprojection arrays after gamma or e-beam irradiation (RP-HPLC and SEC-HPLC)
Method: Validation reverse-phase and size-exclusion high pressure liquid chromatography (RP-HPLC and SEC-HPLC, respectively) were used to quantify PTH oxidation resulting from exposure to the sterilizing radiation. Formulations of hPTH(1-34) were prepared, comprising 20% w/w HPTH, 20% sucrose, 0.2% polysorbate 20 and 0.03% EDTA. The PTH formulations were coated onto microprojection arrays, which were then enclosed in glass vials. The coated arrays were irradiated with 7, 14 or 21 kGy radiation doses, from either gamma radiation or e-beam, under dry ice or an ambient temperature. […] Tables 1 and 2 give the data corresponding to the purity and degradation products for gamma radiation and e-beam, respectively.

- stability following irradiation ([1]; arrays with polycarbonate retainer ring and acrylate adhesive, nitrogen purged foil pouch, 14 and 21 kGy, dry ice, FIG. 12): adequate stability
- oxidation ([1]; gamma 14 kGy, foil pouch sealed with ambient air, dry ice and ambient temperature, FIG. 11): major oxidation
- purity ([1]; gamma 14 kGy, nitrogen purged foil pouch, dry ice and ambient temperature, FIG. 11): comparable to the controls
- increase in oxidation ([1]; gamma 21 kGy, ambient temperature, nitrogen purged foil pouch, FIG. 10): approximately 2%
- oxidation ([1]; gamma 21 kGy, ambient temperature, nitrogen purged glass vial, FIG. 10): approximately 40%
- increase in overall oxidation ([1]; gamma 21 kGy, nitrogen purged foil pouch, ambient temperature): less than 4%
- increase in overall oxidation ([1]; gamma 21 kGy, nitrogen purged foil pouch, dry ice): less than 2%
- impact of amount of sucrose on stability during irradiation ([2]; 1:1 versus 2:1 sucrose:hPTH, gamma or e-beam, FIG. 15): did not have a significant impact
- degradation, e-beam sterilization versus gamma irradiation ([2]; 15 kGy, same temperature, FIG. 13): less degradation
- degradation ([2]; sample without a desiccant, 15 kGy, FIG. 13): most degradation
- deamidation and aggregation degradation products ([3]; FIG. 8): not prominent
- morphology ([3]; ethylene oxide sterilized sample): altered substantially
- degradation ([3]; gamma 21 kGy, ambient temperature, FIG. 8): severe
- oxidation ([3]; gamma irradiated samples packaged in nitrogen purged foil pouches): minimal oxidation
- purity of hPTH ([3]; gamma radiation, samples other than 21 kGy glass vial ambient (foil pouch, dry ice, 7 or 14 kGy), FIG. 7): comparable to that of the controls
- loss of purity ([4]; 7 kGy under dry ice, compared with other doses and temperatures): least loss of purity
- degradation (oxidation) ([4]; 21 kGY dose, particularly at an ambient temperature): less degradation
- aggregation following irradiation ([4]; FIG. 6, gamma and e-beam, 7-21 kGy): relatively low
- degradation, e-beam sterilization less than gamma radiation ([4]; at the high radiation doses): 5-10%
- purity of PTH relative to a control formulation ([4]; gamma radiation and e-beam exposure, FIG. 5): decreased
- deamidated products ([4]; irradiated formulations versus control formulation): comparable to the control formulation
Structure (SMILES): CC[C@H](C)[C@H](NC(=O)[C@H](CCC(=O)O)NC(=O)[C@H](CO)NC(=O)[C@@H](NC(=O)[C@@H](N)CO)C(C)C)C(=O)N[C@@H](CCC(N)=O)C(=O)N[C@@H](CC(C)C)C(=O)N[C@@H](CCSC)C(=O)N[C@@H](Cc1cnc[nH]1)C(=O)N[C@@H](CC(N)=O)C(=O)N[C@@H](CC(C)C)C(=O)NCC(=O)N[C@@H](CCCCN)C(=O)N[C@@H](Cc1cnc[nH]1)C(=O)N[C@@H](CC(C)C)C(=O)N[C@@H](CC(N)=O)C(=O)N[C@@H](CO)C(=O)N[C@@H](CCSC)C(=O)N[C@@H](CCC(=O)O)C(=O)N[C@@H](CCCN=C(N)N)C(=O)N[C@H](C(=O)N[C@@H](CCC(=O)O)C(=O)N[C@@H](Cc1c[nH]c2ccccc12)C(=O)N[C@@H](CC(C)C)C(=O)N[C@@H](CCCN=C(N)N)C(=O)N[C@@H](CCCCN)C(=O)N[C@@H](CCCCN)C(=O)N[C@@H](CC(C)C)C(=O)N[C@@H](CCC(N)=O)C(=O)N[C@@H](CC(=O)O)C(=O)N[C@H](C(=O)N[C@@H](Cc1cnc[nH]1)C(=O)N[C@@H](CC(N)=O)C(=O)N[C@@H](Cc1ccccc1)C(=O)O)C(C)C)C(C)C [hPTH(1-34)]
- loss in purity relative to the control ([1]; gamma 21 kGy, nitrogen purged foil pouch, FIG. 9): did not suffer a significant loss in purity
- degradation ([3]; ethylene oxide sterilization): considerable degradation; also recorded: severe
